Measured values published in patent EP2951180B1, “2,6,7,8 SUBSTITUTED PURINES AS HDM2 INHIBITORS” (Merck Sharp & Dohme Corp., priority 2013, dated 2014).
pIC50: −log10 of the molar value. Where two headings read alike, the source gives them in different places.

Biological target: T1, HDM2 (Homo sapiens, UniProt Q00987)
T1 construct: Thioredoxin (N); made in house; host or cells: E. coli strain BL21(DE3)Rosetta
Assay: HDM2 FRET assay (inhibition of binding of FITC labeled p53-pocket peptide to HDM2)
Settings: read-out: FRET IC50
In short: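 Signal is read as the 520/495 nm emission ratio and converted to percent inhibition; nonlinear sigmoidal regression yields IC50. The assay mixes HDM2 (0.5 nM), FITC-p53 peptide (3 nM) and Tb anti-His antibody (0.25 nM) at 0.1% DMSO.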

T1 sequence (Q00987 17-125): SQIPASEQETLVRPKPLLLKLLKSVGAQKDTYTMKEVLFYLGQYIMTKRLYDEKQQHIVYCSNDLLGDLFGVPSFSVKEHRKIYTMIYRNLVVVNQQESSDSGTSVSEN

Row | SMILES | pIC50 (Table 17.2) | pIC50 (Table 18)
1 | CC(=O)N1CCN(c2nc3nc(C(N)=O)nc(N[C@H](C)C4CCC4)c3n2C[C@H]2CC[C@H](C)CC2)[C@H](c2ccccc2)C1 [Example 17.11, 8-[(2R)-4-acetyl-2-phenylpiperazin-1-yl]-6-{[(1R)-1-cyclobutylethyl]amino}-7-[(trans-4-methylcyclohexyl)methyl]-7H-purine-2-carboxamide] | 8.20 | –
2 | C[C@@H](Nc1nc(C(N)=O)nc2nc(N3CCN(S(C)(=O)=O)C[C@H]3c3ccccc3)n(C[C@H]3CC[C@H](C)CC3)c12)C1CCC1 [Example 17.12, 6-{[(1R)-1-cyclobutylethyl]amino}-7-[(trans-4-methylcyclohexyl)methyl]-8-[(2R)-4-(methylsulfonyl)-2-phenylpiperazin-1-yl]-7H-purine-2-carboxamide] | 8.34 | –
3 | C[C@@H](Nc1nc(-c2noc(=O)[nH]2)nc2nc(N3CCN(S(C)(=O)=O)C[C@H]3c3ccccc3)n(C[C@H]3CC[C@H](C)CC3)c12)C1CCC1 [Example 17.13, 3-(6-{[(1R)-1-cyclobutylethyl]amino}-7-[(trans-4-methylcyclohexyl)methyl]-8-[(2R)-4-(methylsulfonyl)-2-phenylpiperazin-1-yl]-7H-purin-2-yl)-1,2,4-oxadiazol-5(4H)-one] | 8.73 | –
4 | C[C@@H]1CN(S(C)(=O)=O)CCN1c1nc2nc(-c3noc(=O)[nH]3)nc(N[C@H](C)C3CCC3)c2n1C[C@H]1CC[C@H](C)CC1 [Example 17.14, 3-(6-{[(1R)-1-cyclobutylethyl]amino}-7-[(trans-4-methylcyclohexyl)methyl]-8-[(2R)-2-methyl-4-(methylsulfonyl)piperazin-1-yl]-7H-purin-2-yl)-1,2,4-oxadiazol-5(4H)-one] | 8.31 | –
5 | C[C@@H]1CN(C(=O)C(C)(C)C)CCN1c1nc2nc(-c3noc(=O)[nH]3)nc(N[C@H](C)C3CCC3)c2n1C[C@H]1CC[C@H](C)CC1 [Example 17.15, 3-(6-{[(1R)-1-cyclobutylethyl]amino}-8-[(2R)-4-(2,2-dimethylpropanoyl)-2-methylpiperazin-1-yl]-7-[(trans-4-methylcyclohexyl)methyl]-7H-purin-2-yl)-1,2,4-oxadiazol-5(4H)-one] | 8.37 | –
6 | C[C@@H]1CN(C(=O)C2CC2)CCN1c1nc2nc(-c3noc(=O)[nH]3)nc(N[C@H](C)C3CCC3)c2n1C[C@H]1CC[C@H](C)CC1 [Example 17.16, 3-(6-{[(1R)-1-cyclobutylethyl]amino}-8-[(2R)-4-(cyclopropylcarbonyl) -2-methylpiperazin-1-yl]-7-[(trans-4-methylcyclohexyl)methyl]-7H-purin-2-yl)-1,2,4-oxadiazol-5(4H)-one] | 8.91 | –
7 | CC(C)S(=O)(=O)N1CCN(c2nc3nc(-c4noc(=O)[nH]4)nc(N[C@H](C)C4CCC4)c3n2C[C@H]2CC[C@H](C)CC2)[C@H](C)C1 [Example 17.17, 3-(6-{[(1R)-1-cyclobutylethyl]amino}-7-[(trans-4-methylcyclohexyl)methyl]-8-{(2R)-2-methyl-4-[(1-methylethyl)sulfonyl]piperazin-1-yl}-7H-purin-2-yl)-1,2,4-oxadiazol-5(4H)-one] | 8.00 | –
8 | C[C@@H]1CN(C(=O)CO)CCN1c1nc2nc(-c3noc(=O)[nH]3)nc(N[C@H](C)C3CCC3)c2n1C[C@H]1CC[C@H](C)CC1 [Example 17.18, 3-(6-{[(1R)-1-cyclobutylethyl]amino}-8-[(2R)-4-(hydroxyacetyl)-2-methylpiperazin-1-yl]-7-[(trans-4-methylcyclohexyl)methyl]-7H-purin-2-yl)-1,2,4-oxadiazol-5(4H)-one] | 8.42 | –
9 | C[C@@H]1CNCCN1c1nc2nc(-c3noc(=O)[nH]3)nc(N[C@H](C)C3CCC3)c2n1C[C@H]1CC[C@H](C)CC1 [Example 17.19, 3-(6-{[(1R)-1-cyclobutylethyl]amino}-7-[(trans-4-methylcyclohexyl)methyl]-8-[(2R)-2-methylpiperazin-1-yl]-7H-purin-2-yl)-1,2,4-oxadiazol-5(4H)-one] | 7.81 | –
10 | C[C@@H]1CN(C(=O)OC(C)(C)C)[C@@H](C)CN1c1nc2nc(-c3noc(=O)[nH]3)nc(N[C@H](C)C3CCC3)c2n1C[C@H]1CC[C@H](C)CC1 [Example 17.20, tert-butyl (2S,5R)-4-[6-{[(1R)-1-cyclobutylethyl]amino}-7-[(trans-4-methylcyclohexyl)methyl]-2-(5-oxo-4,5-dihydro-1,2,4-oxadiazol-3-yl)-7H-purin-8-yl]-2,5-dimethylpiperazine-1-carboxylate] | 7.83 | –
11 | C[C@@H]1CN[C@@H](C)CN1c1nc2nc(-c3noc(=O)[nH]3)nc(N[C@H](C)C3CCC3)c2n1C[C@H]1CC[C@H](C)CC1 [Example 17.21, 3-(6-{[(1R)-1-cyclobutylethyl]amino}-8-[(2R,5S)-2,5-dimethylpiperazin-1-yl]-7-[(trans-4-methylcyclohexyl)methyl]-7H-purin-2-yl)-1,2,4-oxadiazol-5(4H)-one] | 7.70 | –
12 | CC(=O)N1C[C@@H](C)N(c2nc3nc(-c4noc(=O)[nH]4)nc(N[C@H](C)C4CCC4)c3n2C[C@H]2CC[C@H](C)CC2)C[C@@H]1C [Example 17.22, 3-{8-[(2R,5S)-4-acetyl-2,5-dimethylpiperazin-1-yl]-6-{[(1R)-1-cyclobutylethyl]amino}-7-[(trans-4-methylcyclohexyl)methyl]-7H-purin-2-yl}-1,2,4-oxadiazol-5(4H)-one] | 8.36 | –
13 | C[C@@H]1CN(C(=O)C2CC2)[C@@H](C)CN1c1nc2nc(-c3noc(=O)[nH]3)nc(N[C@H](C)C3CCC3)c2n1C[C@H]1CC[C@H](C)CC1 [Example 17.23, 3-(6-{[(1R)-1-cyclobutylethyl]amino}-8-[(2R,5S)-4-(cyclopropylcarbonyl) -2,5-dimethylpiperazin-1-yl]-7-[(trans-4-methylcyclohexyl)methyl]-7H-purin-2-yl)-1,2,4-oxadiazol-5(4H)-one] | 8.31 | –
14 | CC(C)c1ccnc(-c2nc3nc(C(=O)O)nc(N[C@H](C)C4CCC4)c3n2C[C@H]2CC[C@H](C(F)(F)F)CC2)c1 [Example 18.1, 6-(((R)-1-cyclobutylethyl)amino)-8-(4-isopropylpyridin-2-yl)-7-((trans-4-(trifluoromethyl)cyclohexyl)methyl)-7H-purine-2-carboxylic acid] | – | 8.46
15 | CC(C)c1ccnc(-c2nc3nc(C(=O)O)nc(N[C@H](C)C4CCC4)c3n2CC2CCC(F)(F)CC2)c1 [Example 18.3, (R)-6-((1-cyclobutylethyl)amino)-7-((4,4-difluorocyclohexyl)methyl)-8-(4-isopropylpyridin-2-yl)-7H-purine-2-carboxylic acid] | – | 7.24
16 | CCC1CCC(Cn2c(-c3cc(C(C)C)ccn3)nc3nc(-c4noc(=O)[nH]4)nc(N[C@H](C)C4CCC4)c32)C1 (stereo partly drawn) [Example 18.4, 3-(6-(((R)-1-cyclobutylethyl)amino)-7-((3-ethylcyclopentyl)methyl) -8-(4-isopropylpyridin-2-yl)-7H-purin-2-yl)-1,2,4-oxadiazol-5(4H)-one] | – | 6.88
17 | CC1=CCC(Cn2c(-c3cc(C(C)C)ccn3)nc3nc(C(=O)O)nc(N[C@H](C)C4CCC4)c32)CC1 (stereo partly drawn) [Example 18.5, 6-(((R)-1-cyclobutylethyl)amino)-8-(4-isopropylpyridin-2-yl)-7-((4-methylcyclohex-3-en-1-yl)methyl)-7H-purine-2-carboxylic acid] | – | 8.19
